IC50 data for 26 compounds are collected here from US20230322846A9, “NEUROACTIVE STEROIDS AND THEIR METHODS OF USE” (SAGE THERAPEUTICS, INC., priority 2018, published 2023).

For this assay, the target named is [35S]-TBPS binding, rat brain cortical membranes. In words: Steroid inhibition of [35S]-TBPS binding. The conditions noted are these: 3 nM [35S]-TBPS, in the presence of 5 mM GABA. In a few lines:
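Rat cortical P2 membranes incubated 90 min at room temperature with 3 nM [35S]-TBPS, […] and test compound (0.5% DMSO final) in NaCl/Na–K phosphate pH 7.4; nonspecific binding with […]. Filter-bound radioactivity counted; IC50 and Imax from nonlinear fits, mean ± SEM.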

As a reminder, the IC50 is the concentration that inhibits the measured activity by half. For `COC[C@@]1(O)CC[C@H]2[C@H](CC[C@@H]3[C@@H]2CC[C@]2(C)[C@@H]([C@H](C)Cn4nccc4C#N)CC[C@@H]32)C1` [Example 34, 1-((S)-2-((3R,5R,8R,9R,10S,13S,14S,17R)-3-hydroxy-3-(methoxymethyl)-13-methylhexadecahydro-1H-cyclopenta[a]phenanthren-17-yl)propyl)-1H-pyrazole-5-carbonitrile], the IC50 is under 100 nM. Regarding `CCOC[C@@]1(O)CC[C@@]2(C)[C@H](CC[C@@H]3[C@@H]2CC[C@]2(C)[C@@H]([C@H](C)N[C@@H](C)c4ccccc4)CC[C@@H]32)C1` [Example 212], the IC50 is 1000 to 10000 nM. The same measure for `C[C@H](NC(=O)c1ccc(C#N)cn1)[C@H]1CC[C@H]2[C@@H]3CC[C@@H]4C[C@](C)(O)CC[C@@H]4[C@H]3CC[C@]12C` [Example 121]: 1000 to 10000 nM; for `COC[C@@]1(O)CC[C@H]2[C@H](CC[C@@H]3[C@@H]2CC[C@]2(C)[C@@H]([C@@H](C)N4Cc5cc(C#N)ccc5C4=O)CC[C@@H]32)C1` [Example 44, 2-((R)-1-((3R,5R,8R,9R,10S,13S,14S,17S)-3-hydroxy-3-(methoxymethyl)-13-methylhexadecahydro-1H-cyclopenta[a]phenanthren-17-yl)ethyl)-1-oxoisoindoline-5-carbonitrile]: under 100 nM; for `C[C@@H]([C@H]1CC[C@H]2[C@@H]3CC[C@@H]4C[C@](C)(O)CC[C@@H]4[C@H]3CC[C@]12C)n1ncc(C#N)c1N` [Example 155, 5-amino-1-((S)-1-((3R,5R,8R,9R,10S,13S,14S,17S)-3-hydroxy-3,13-dimethylhexadecahydro-1H-cyclopenta[a]phenanthren-17-yl)ethyl)-1H-pyrazole-4-carbonitrile]: 1000 to 10000 nM. The same measure for `COC[C@@]1(O)CC[C@H]2[C@H](CC[C@@H]3[C@@H]2CC[C@]2(C)[C@@H]([C@@H](C)n4ncc(C#N)c4N)CC[C@@H]32)C1` [Example 152, 5-amino-1-((R)-1-((3R,5R,8R,9R,10S,13S,14S,17S)-3-hydroxy-3-(methoxymethyl)-13-methylhexadecahydro-1H-cyclopenta[a]phenanthren-17-yl)ethyl)-1H-pyrazole-4-carbonitrile]: 1000 to 10000 nM; for `COC[C@@]1(O)CC[C@H]2[C@H](CC[C@@H]3[C@@H]2CC[C@]2(C)[C@@H]([C@@H](C)NS(=O)(=O)c4cccc(C#N)n4)CC[C@@H]32)C1` [Example 75]: under 100 nM; for `CCC[C@@]1(O)CC[C@H]2[C@H](CC[C@@H]3[C@@H]2CC[C@]2(C)[C@@H]([C@H](C)Cc4cnc(C)cn4)CC[C@@H]32)C1` [Example 418]: 1000 to 10000 nM.

Consider `C[C@@]1(O)CC[C@H]2[C@H](CC[C@@H]3[C@@H]2CC[C@]2(C)[C@@H](CN4CCCCC4=O)CC[C@@H]32)C1` [Example 1, 1-(((3R,5R,8R,9R,10S,13S,14S,17S)-3-hydroxy-3,13-dimethylhexadecahydro-1H-cyclopenta[a]phenanthren-17-yl)methyl)piperidin-2-one], for which the IC50 lay in the range of 1000 to 10000 nM. The same measure for `C[C@@]1(O)CC[C@H]2[C@H](CC[C@@H]3[C@@H]2CC[C@]2(C)[C@@H](CNC(=O)Cc4ccccc4)CC[C@@H]32)C1` [Example 8, N-(((3R,5R,8R,9R,10S,13S,14S,17S)-3-hydroxy-3,13-dimethylhexadecahydro-1H-cyclopenta[a]phenanthren-17-yl)methyl)-2-phenylacetamide]: under 100 nM. The same measure for `C[C@H]([C@H]1CC[C@H]2[C@@H]3CC[C@@H]4C[C@](C)(O)CC[C@@H]4[C@H]3CC[C@]12C)n1ncc(C#N)c1N` [Example 154, 5-amino-1-((R)-1-((3R,5R,8R,9R,10S,13S,14S,17S)-3-hydroxy-3,13-dimethylhexadecahydro-1H-cyclopenta[a]phenanthren-17-yl)ethyl)-1H-pyrazole-4-carbonitrile]: 1000 to 10000 nM; for `COc1cncc(C[C@H](C)[C@H]2CC[C@H]3[C@@H]4CC[C@@H]5C[C@](C)(O)CC[C@@H]5[C@H]4CC[C@]23C)c1` [Example 432]: under 100 nM; for `COC[C@@]1(O)CC[C@H]2[C@H](CC[C@@H]3[C@@H]2CC[C@]2(C)[C@@H]([C@H](C)NC(=O)c4ccc(F)cc4F)CC[C@@H]32)C1` [Example 135]: 1000 to 10000 nM. The same measure for `C[C@@H](NC(=O)c1ccccc1)[C@H]1CC[C@H]2[C@@H]3CC[C@@H]4C[C@](C)(O)CC[C@@H]4[C@H]3CC[C@]12C` [Example 24, N—((R)-1-((3R,5R,8R,9R,10S,13S,14S,17S)-3-hydroxy-3,13-dimethylhexadecahydro-1H-cyclopenta[a]phenanthren-17-yl)ethyl)benzamide]: under 100 nM; for `C[C@H](Cn1cc(C#N)cn1)[C@@]1(O)CC[C@H]2[C@@H]3CC[C@@H]4C[C@](C)(O)CC[C@@H]4[C@H]3CC[C@@]21C` [Example 346, 1-((R)-2-((3R,5R,8R,9R,10S,13S,14S,17S)-3,17-dihydroxy-3,13-dimethylhexadecahydro-1H-cyclopenta[a]phenanthren-17-yl)propyl)-1H-pyrazole-4-carbonitrile]: 1000 to 10000 nM; for `CC[C@@]1(O)CC[C@H]2[C@H](CC[C@@H]3[C@@H]2CC[C@]2(C)[C@@H]([C@@H](C)Cn4nccc4C#N)CC[C@@H]32)C1` [Example 273, 1-((R)-2-((3R,5R,8R,9R,10S,13S,14S,17R)-3-ethyl-3-hydroxy-13-methylhexadecahydro-1H-cyclopenta[a]phenanthren-17-yl)propyl)-1H-pyrazole-5-carbonitrile]: under 100 nM. Turning to `CCOC[C@@]1(O)CC[C@H]2[C@H](CC[C@@H]3[C@@H]2CC[C@]2(C)[C@@H]([C@@H](C)NS(=O)(=O)c4ccc(C#N)cc4)CC[C@@H]32)C1` [Example 67, 4-cyano-N—((R)-1-((3R,5R,8R,9R,10S,13S,14S,17S)-3-(ethoxymethyl)-3-hydroxy-13-methylhexadecahydro-1H-cyclopenta[a]phenanthren-17-yl)ethyl)benzenesulfonamide], the half-maximal inhibitory concentration (IC50) was under 100 nM. The same measure for `COC[C@@]1(O)CC[C@H]2[C@H](CC[C@@H]3[C@@H]2CC[C@]2(C)[C@@H](CNC(=O)c4ccccc4)CC[C@@H]32)C1` [Example 16, N-(((3R,5R,8R,9R,10S,13S,14S,17S)-3-hydroxy-3-(methoxymethyl)-13-methylhexadecahydro-1H-cyclopenta[a]phenanthren-17-yl)methyl)benzamide]: under 100 nM. With `C[C@@H](Cn1cc(C#N)cn1)[C@H]1CC[C@H]2[C@@H]3CC[C@@H]4C[C@](C)(O)CC[C@]4(C)[C@H]3CC[C@]12C` [Example 305, 1-((R)-2-((3R,5R,8R,9S,10S,13S,14S,17R)-3-hydroxy-3,10,13-trimethylhexadecahydro-1H-cyclopenta[a]phenanthren-17-yl)propyl)-1H-pyrazole-4-carbonitrile], the IC50 was under 100 nM.

Consider `Cc1cc(C[C@@H](C)[C@H]2CC[C@H]3[C@@H]4CC[C@@H]5C[C@](C)(O)CC[C@@H]5[C@H]4CC[C@]23C)sn1` [Example 451], for which the IC50 was in the range of 100 to 1000 nM. The same measure for `CC(C)[C@@]1(O)CC[C@H]2[C@H](CC[C@@H]3[C@@H]2CC[C@]2(C)[C@@H]([C@@H](C)Cn4cc(C#N)cn4)CC[C@@H]32)C1` [Example 343, 1-((R)-2-((3R,5R,8R,9R,10S,13S,14S,17R)-3-hydroxy-3-isopropyl-13-methylhexadecahydro-1H-cyclopenta[a]phenanthren-17-yl)propyl)-1H-pyrazole-4-carbonitrile]: 100 to 1000 nM; for `COC[C@@]1(O)CC[C@H]2[C@H](CC[C@@H]3[C@@H]2CC[C@]2(C)[C@@H]([C@@H](C)Cc4cnc(C)cn4)CC[C@@H]32)C1` [Example 422]: under 100 nM; for `COC[C@@]1(O)CC[C@H]2[C@H](CC[C@@H]3[C@@H]2CC[C@]2(C)[C@@H]([C@H](C)NC(=O)c4ccc(F)cn4)CC[C@@H]32)C1` [Example 126]: 1000 to 10000 nM.

As for `CCOC[C@@]1(O)CC[C@H]2[C@H](CC[C@@H]3[C@@H]2CC[C@]2(C)[C@@H]([C@@H](C)n4cc(C#N)cn4)CC[C@@H]32)C1` [Example 162, 1-((R)-1-((3R,5R,8R,9R,10S,13S,14S,17S)-3-(ethoxymethyl)-3-hydroxy-13-methylhexadecahydro-1H-cyclopenta[a]phenanthren-17-yl)ethyl)-1H-pyrazole-4-carbonitrile], the IC50 is 100 to 1000 nM. The same measure for `CC[C@@]1(O)CC[C@H]2[C@H](CC[C@@H]3[C@@H]2CC[C@]2(C)[C@@H]([C@@H](C)Nc4ccc(C#N)nc4)CC[C@@H]32)C1` [Example 491, 5-(((R)-1-((3R,5R,8R,9R,10S,13S,14S,17S)-3-ethyl-3-hydroxy-13-methylhexadecahydro-1H-cyclopenta[a]phenanthren-17-yl)ethyl)amino)picolinonitrile]: 100 to 1000 nM; for `C[C@H](Cn1cc(C#N)cn1)[C@H]1CC[C@H]2[C@@H]3CC[C@@H]4C[C@@](O)(C5CC5)CC[C@@H]4[C@H]3CC[C@]12C` [Example 342, 1-((S)-2-((3R,5R,8R,9R,10S,13S,14S,17R)-3-cyclopropyl-3-hydroxy-13-methylhexadecahydro-1H-cyclopenta[a]phenanthren-17-yl)propyl)-1H-pyrazole-4-carbonitrile]: 100 to 1000 nM.
